The values below come from patent US20090181075A1, “DROSPIRENONE CONTAINING TRANSDERMAL DRUG DELIVERY DEVICES AND METHODS OF DELIVERY THEREOF” (priority 2005, published 2009).

The series in a line: Drospirenone solubility in liquid excipients. The format is physicochemical. The following applies: weight-weight basis. Here is the method:
The solubility of drospirenone in liquid excipients was obtained using the following test method. Drospirenone was incrementally added to excipient until it stopped dissolving. The saturated solution was then filtered through a 0.45 μm polytetrafluoroethylene filter to remove excess drug particles. The concentration of drospirenone was then analyzed for drug using conventional high performance liquid chromatography methods. The values are reported as the percent solubility on a weight-weight basis.

As to `C[C@]12CCC(=O)C=C1[C@@H]1C[C@@H]1[C@H]1[C@@H]3[C@@H]4C[C@@H]4[C@@]4(CCC(=O)O4)[C@@]3(C)CC[C@@H]12` [drospirenone, 6β,7β,15β,16β-dimethylene-3-oxo-17α-pregn-4-ene-21,17-carbolactone], the solubility of drospirenone is given as 44.4% (in benzyl alcohol); 22.6% (in benzyl lactate); 2.0% (in glyceryl monooleate); 1.0% (in lauryl alcohol); 1.4% (in lauryl lactate); 11.6% (in methyl lactate). The compound further gave a solubility of drospirenone (in methyl laurate) of 0.6%.
